Experiments:
[1] = tested on: patients with Crohn's disease; settings: cited from earlier work
HMVECLs [2] = assay: TNFα-induced gene expression in HMVECLs (RNASeq); settings: 10 μM SB203580
p38α vs. p38β = settings: cited from earlier work
[3] = tested on: p38-dependent phosphorylation of Stat-1; assay: Inhibition of substrate phosphorylation in HeLa cells, Stat-1; type: cell-based, human; settings: 10 μM SB203580 or 50 μM UM101 30 min, then anisomycin
Description: (§1) Cell extracts prepared in RIPA buffer containing protease and phosphatase inhibitors were resolved by SDS-PAGE, transferred to PVDF membrane, blocked with 5% nonfat dry milk, probed with primary antibodies against phosphorylated MK2 and Stat-1, and total p38α as a loading control. Bands were detected using secondary antibodies conjugated to infrared fluorophores and infrared fluorescence imaging (Odyssey; LICOR).

HMVECL monolayers = assay: Endothelial permeability assay (10 kDa dextran flux); type: cell-based, human; settings: TNFα and 39.5° C. for 6 h
Procedure: Endothelial permeability assay: Permeability of HMVECL monolayers was assessed by measuring transendothelial flux of 10 kDa dextran conjugated to Cascade blue fluorescent dye for 30 min at 37° C. in Matrigel-coated 3 μm pore size Transwell plates.

[4] = tested on: p38-dependent phosphorylation of MK2; assay: Inhibition of substrate phosphorylation in HeLa cells, MK2; type: cell-based, human; settings: 10 μM SB203580 or 50 μM UM101 30 min, then anisomycin
Description: as §1

p38β [5] = target: T1, p38β (Homo sapiens, UniProt Q15759); assay: Differential scanning fluorimetry (DSF), p38β; type: binding
T1 construct: HA (N); made in house; host or cells: E. coli BL21

[6] = tested on: LPS/hyperthermia-induced ALI; assay: Mouse LPS/hyperthermia-induced acute lung injury model, pretreatment; settings: for mice died within 24 h: 1000 μg i.p. 30 min prior to 50 μg LPS i.t. and hyperthermia
[7] = tested on: IL-8-directed neutrophil TEM through HMVECLs; assay: Neutrophil transendothelial migration (TEM) assay; type: cell-based, human; settings: HMVECLs 39.5° C. 6 h
Procedure: Neutrophil transendothelial migration (TEM) assay: Neutrophils were isolated from heparinized venous blood that was collected from healthy volunteers using a protocol approved by the University of Maryland Institutional Review Board and TEM of calcein-labeled neutrophils through HMVECLs was measured.

[8] = tested on: LPS-induced lung inflammation; assay: Mouse acute lung injury, pretreatment i.p. 1 mg (FIG. 9); type: in vivo; settings: pretreated i.p. 1 mg, then 100 mg LPS i.t. at 39° C.
Procedure: Mice were pretreated i.p. with 1 mg of test compounds and then treated with […] LPS i.t. at 39° C. to induce inflammation. Lung injury was assessed by measuring total protein in the lung lavage fluid.
(§2) First, the compounds can block thrombin-induced cell permeability in human vascular endothelial cells (FIG. 8). […] Mice were pretreated i.p. with 1 mg of test compounds and then treated with […] LPS i.t. at 39° C. to induce inflammation. Lung injury was assessed by measuring total protein in the lung lavage fluid. […] All mice received 50 μg LPS i.t. and were kept 24 h at 39° C.; all treatments 1 mg in 0.5 ml DMSO given 6 h post-LPS; mean±SM, n=5, * p=0.03 vs DMSO #1; † p=0.16 vs DMSO #2. Lung injury was assessed by measuring total protein in the lung lavage fluid.

LPS-induced lung injury = assay: Mouse acute lung injury, treatment 6 h post-LPS (FIG. 10); type: in vivo; settings: 50 μg LPS i.t., 24 h at 39° C., 1 mg in 0.5 ml DMSO 6 h post-LPS
Procedure: All mice received 50 μg LPS i.t. and were kept 24 h at 39° C.; all treatments 1 mg in 0.5 ml DMSO given 6 h post-LPS; mean±SM, n=5, * p=0.03 vs DMSO #1; † p=0.16 vs DMSO #2. Lung injury was assessed by measuring total protein in the lung lavage fluid.
as §2

[9] = target: unphosphorylated recombinant human p38α (Homo sapiens, UniProt Q16539); assay: Differential scanning fluorimetry (DSF), p38α; settings: for p38α ΔTm (° C.) @100 μM: change in melting temperature relative to DMSO control in DSF assay; for increase in melting temperature of p38α: added at 100 μM
HMVECLs [10] = assay: Cytotoxicity, MTS assay; type: cell-based, human; settings: 100 μM for 48 h
recombinant ERK2 = recombinant ERK2 (Homo sapiens, UniProt P28482); assay: Differential scanning fluorimetry (DSF), ERK2; type: binding; settings: for ERK2 ΔTm (° C.) @100 μM: change in melting temperature relative to DMSO control in DSF assay; for stabilization of ERK2 in DSF: 10-100 μM
HMVECLs [11] = assay: Cytotoxicity, LDH release; type: cell-based, human; settings: 100 μM for 48 h
mutated p38α = target: T2, mutated p38α (Homo sapiens, UniProt Q16539, H107T/K165R/L108F/R49K); assay: STD-NMR, mutated p38α; type: binding; settings: 200 μM UM101, 5 μM protein
T2 construct: made in house; host or cells: E. coli BL21
Procedure: (§3) Spectra were recorded on an Agilent DD2 500-MHz spectrometer equipped with a 5-mm inverse HFCN probe head at 300 K. During each transient, the protein was saturated with a series of 58 […]-shaped pulses (50 ms, 1 ms delay between pulses) using the vendor-supplied STD-ES pulse sequence, for a total saturation time of 3 seconds. The on-resonance irradiation of protein was done at 0.5 ppm and off-resonance irradiation at 30 ppm. The vendor-supplied WATERGATE pulse sequence was used to suppress the water signal in the STD spectrum. The on-resonance and off-resonance pulse sequences were subtracted internally. A total of 16,384 transients were collected for each STD experiment with a 1 second delay between acquisitions, 6000 Hz spectral width, and 1.3 second acquisition time.

[12] = target: T3, p38α mutant (R49K/HL 107-8TF/K165R) (Homo sapiens, UniProt Q16539, H107T/K165R/L108F/R49K); assay: DSF, p38α mutant with 4 mutations in CADD-targeted pocket; type: binding; settings: four of ten target pocket amino acids substituted
T3 construct: made in house; host or cells: E. coli BL21

p38β [13] = target: T1, p38β; assay: STD-NMR, p38β; type: binding; settings: 200 μM UM101, 5 μM protein
Procedure: as §3

p38α = target: T4, p38α (Homo sapiens, UniProt Q16539); assay: STD-NMR, p38α; type: binding; settings: 200 μM UM101, 5 μM protein
T4 construct: made in house; host or cells: E. coli BL21
Procedure: as §3

rheumatoid arthritis = settings: two trials; cited from earlier work
[14] = tested on: patients at-risk for ARDS; settings: cited from earlier work
[15] = tested on: patients with hypercholesterolemia; settings: cited from earlier work

T1 sequence (Q15759 whole entry): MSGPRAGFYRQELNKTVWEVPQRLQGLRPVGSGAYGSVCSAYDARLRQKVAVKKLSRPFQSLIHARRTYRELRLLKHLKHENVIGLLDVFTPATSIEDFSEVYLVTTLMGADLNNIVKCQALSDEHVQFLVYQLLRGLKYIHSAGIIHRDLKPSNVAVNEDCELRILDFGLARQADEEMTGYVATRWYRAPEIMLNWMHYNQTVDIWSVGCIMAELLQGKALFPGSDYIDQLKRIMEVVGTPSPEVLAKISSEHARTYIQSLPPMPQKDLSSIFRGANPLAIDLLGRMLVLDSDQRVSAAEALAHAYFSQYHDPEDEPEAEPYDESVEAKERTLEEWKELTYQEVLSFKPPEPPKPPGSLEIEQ
Sequence of recombinant ERK2 (P28482 whole entry, species assumed): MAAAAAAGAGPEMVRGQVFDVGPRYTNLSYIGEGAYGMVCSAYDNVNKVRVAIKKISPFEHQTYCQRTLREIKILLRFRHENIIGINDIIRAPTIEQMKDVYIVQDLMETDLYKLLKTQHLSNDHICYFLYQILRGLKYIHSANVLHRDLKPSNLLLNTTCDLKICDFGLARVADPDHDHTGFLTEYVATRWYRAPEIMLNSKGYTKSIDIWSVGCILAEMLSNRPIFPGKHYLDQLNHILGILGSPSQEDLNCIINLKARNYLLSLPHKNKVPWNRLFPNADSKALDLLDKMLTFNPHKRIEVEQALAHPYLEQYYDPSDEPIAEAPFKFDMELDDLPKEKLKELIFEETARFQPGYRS
Sequence of unphosphorylated recombinant human p38α (Q16539 whole entry): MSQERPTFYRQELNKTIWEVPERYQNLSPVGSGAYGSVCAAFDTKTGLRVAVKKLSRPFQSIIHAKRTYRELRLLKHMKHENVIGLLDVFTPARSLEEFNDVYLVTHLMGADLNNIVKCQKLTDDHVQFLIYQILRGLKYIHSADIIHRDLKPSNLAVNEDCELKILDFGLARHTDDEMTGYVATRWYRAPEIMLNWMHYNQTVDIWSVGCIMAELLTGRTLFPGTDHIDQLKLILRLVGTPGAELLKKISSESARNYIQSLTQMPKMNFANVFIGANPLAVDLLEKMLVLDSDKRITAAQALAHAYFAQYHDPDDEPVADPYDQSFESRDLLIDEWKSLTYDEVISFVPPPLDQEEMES
T3 sequence (Q16539 whole entry R49K/H107T/L108F/K165R): as the sequence (Q16539 whole entry) above, with R49K, H107T, L108F, K165R counted along it
T2 sequence (Q16539 whole entry R49K/H107T/L108F/K165R): as the sequence (Q16539 whole entry) above, with R49K, H107T, L108F, K165R counted along it
T4 sequence (Q16539 whole entry): as the sequence (Q16539 whole entry) above

Cc1ccc(-n2nc(C(C)(C)C)cc2NC(=O)Nc2ccc(OCCN3CCOCC3)c3ccccc23)cc1 [BIRB 796]
clinical effect [1]: no clinical effect | serum CRP levels [1]: transiently reduced

C[S+]([O-])c1ccc(-c2nc(-c3ccncc3)c(-c3ccc(F)cc3)[nH]2)cc1 (centres unmarked) [SB203580, reference compound]
number of TNFα-induced genes with expression inhibited (HMVECLs [2]): 61 genes | number of genes with expression increased (HMVECLs [2]): 38 genes | higher binding affinity for p38α than p38β (p38α vs. p38β): ~10 fold | anisomycin-stimulated phosphorylation of Stat-1 (immunoblot) [3]: reduced | reduction of TNFα/hyperthermia-induced permeability increase for 10 kDa dextran (HMVECL monolayers; 10 μM): 50% | anisomycin-stimulated phosphorylation of MK2 (immunoblot) [4]: reduced | stabilization of p38β in DSF (p38β [5]): stabilized both p38α and p38β | reduction of lavage neutrophil content vs. DMSO-treated controls ([6]; 1000 μg i.p.): 46.8% | mice died within 24 h [6]: one of six | reduction of hyperthermia-augmented increase in neutrophil TEM ([7]; 10 μM): 84%

CN(C)c1cccc2c(S(=O)(=O)Nc3ccc(CN4CCS(=O)(=O)CC4)cc3)cccc12 [SF-6-222]
protein leak into bronchoalveolar lavage fluid (total protein) [8]: reduced protein leak | protein leak into bronchoalveolar lavage fluid (total protein) (LPS-induced lung injury): reduced protein leak

O=C(Nc1ccc(CN2CCOCC2)cc1)c1ccc(Cl)cc1 [SF-7-009]
protein leak into bronchoalveolar lavage fluid (total protein) [8]: reduced protein leak | protein leak into bronchoalveolar lavage fluid (total protein) (LPS-induced lung injury): reduced protein leak

CN(C)c1cccc2c(S(=O)(=O)Nc3ccc(CN4CCOCC4)cc3)cccc12 [SF-7-044]
protein leak into bronchoalveolar lavage fluid (total protein) (LPS-induced lung injury): reduced protein leak

O=C1c2cc(S(=O)(=O)NCCO)ccc2-c2ccc(S(=O)(=O)NCCO)cc21 [UM60, N2,N7-di(2-hydroxyethyl)-9-oxo-9H-2,7-fluorenedisulfonamiide]
stabilization of p38α in DSF [9]: stabilized p38α | p38α ΔTm (° C.) @100 μM [9]: 0.735 °C | increase in melting temperature of p38α [9]: ~0.7 °C | reduction of TNFα/hyperthermia-induced permeability increase for 10 kDa dextran (HMVECL monolayers; 10 μM): no effect | reduction of TNFα/hyperthermia-induced permeability increase for 10 kDa dextran (HMVECL monolayers; 25 μM): no effect | reduction of TNFα/hyperthermia-induced permeability increase for 10 kDa dextran (HMVECL monolayers; 100 μM): 71% | toxicity in MTS assay (HMVECLs [10]): Neither compound was toxic | ERK2 ΔTm (° C.) @100 μM (recombinant ERK2): 0.195 °C | stabilization of ERK2 in DSF (recombinant ERK2): not ERK2 | mice died within 24 h [6]: Four of six | reduction of hyperthermia-augmented increase in neutrophil TEM ([7]; 10 μM): 18% | reduction of hyperthermia-augmented increase in neutrophil TEM ([7]; 25 μM): 89% | reduction of hyperthermia-augmented increase in neutrophil TEM ([7]; 50 μM): less than baseline levels | toxicity in LDH release assay (HMVECLs [11]): Neither compound was toxic

O=C(Nc1ccc(CN2CCS(=O)(=O)CC2)cc1)c1ccc(Cl)cc1 [UM101, 4-chloro-N-{4-[(1,1-dioxo-1lambda˜6˜-,4thiazinan-4-yl)methyl]phenyl}benzaniide]
stabilization of p38α in DSF [9]: only stabilized p38α | p38α ΔTm (° C.) @100 μM [9]: 0.667 °C | increase in melting temperature of p38α [9]: ~0.7 °C | interaction with mutated p38α in STD-NMR (mutated p38α): much weaker | anisomycin-stimulated phosphorylation of Stat-1 (immunoblot) [3]: reduced | reduction of TNFα/hyperthermia-induced permeability increase for 10 kDa dextran (HMVECL monolayers; 10 μM): 74% | reduction of TNFα/hyperthermia-induced permeability increase for 10 kDa dextran (HMVECL monolayers; 25 μM): 89% | reduction of TNFα/hyperthermia-induced permeability increase for 10 kDa dextran (HMVECL monolayers; 100 μM): > 100% | binding to p38α mutant in DSF [12]: no UM101-binding | toxicity in MTS assay (HMVECLs [10]): Neither compound was toxic | anisomycin-stimulated phosphorylation of MK2 (immunoblot) [4]: reduced | stabilization of p38β in DSF (p38β [5]): only stabilized p38α | interaction with p38β in STD-NMR (p38β [13]): much weaker | ERK2 ΔTm (° C.) @100 μM (recombinant ERK2): 0.0175 °C | stabilization of ERK2 in DSF (recombinant ERK2): not ERK2 | protein leak into bronchoalveolar lavage fluid (total protein) [8]: reduced protein leak | reduction of lavage neutrophil content vs. DMSO-treated controls ([6]; 100 μg i.p.): 44.4% | reduction of lavage neutrophil content vs. DMSO-treated controls ([6]; 300 μg i.p.): 49.5% | reduction of lavage neutrophil content vs. DMSO-treated controls ([6]; 500 μg i.p.): 55.3% | reduction of lavage neutrophil content vs. DMSO-treated controls ([6]; 1000 μg i.p.): 54% | mice survived (24 h) ([6]; 100, 300, 500 or 1000 μg i.p. 30 min prior to 50 μg LPS i.t. and hyperthermia): All sixteen | interaction with p38α in STD-NMR (p38α): protons in both aromatic rings of UM101 interact with p38α | reduction of hyperthermia-augmented increase in neutrophil TEM ([7]; 10 μM): 95% | reduction of hyperthermia-augmented increase in neutrophil TEM ([7]; 25 μM): less than baseline levels | reduction of hyperthermia-augmented increase in neutrophil TEM ([7]; 50 μM): less than baseline levels | toxicity in LDH release assay (HMVECLs [11]): Neither compound was toxic

NC(=O)c1ccc(N(C(N)=O)c2c(F)cccc2F)nc1-c1ccc(F)cc1F [VX-702]
proportion of treated subjects with ACR20 symptom score vs. placebo (rheumatoid arthritis): small increases

Cc1cc(F)ccc1-c1nc(NC(CO)CO)nc2c1ccc(=O)n2-c1c(F)cccc1F [dilmapimod]
safety [14]: safe at the doses administered | serum C-reactive protein (CRP) levels [14]: modestly reduced

Cc1c(F)cc(C(=O)NC2CC2)cc1-c1ccc(C(=O)NCC(C)(C)C)cn1 [losmapimod]
serum CRP [15]: reduced serum CRP | vascular relaxation [15]: improved vascular relaxation
